Test results published in ChEMBL document CHEMBL1130974, “High affinity phenylglycinol-based NK1 receptor antagonists” (Bioorg Med Chem Lett, 1998).

Experiments:
Substance-P receptor = Substance-P receptor (Homo sapiens, UniProt P25103); experiment: Affinity towards hNK1 receptor by displacement of [125I]- Substance P from hNK1 receptor expressed in CHO cells; type: cell-based
[1] = Low affinity binding to calcium channel
[2] = Tmax was determined; type: ADME, organism-based; settings: rat, in vivo
[3] = Maximal plasma drug concentration was determined; type: ADME, organism-based; settings: rat
Neuromedin-K receptor = target: T1, Neuromedin-K receptor (Homo sapiens, UniProt P29371); experiment: Binding affinity for Tachykinin receptor 3
T1 sequence (P29371 whole entry): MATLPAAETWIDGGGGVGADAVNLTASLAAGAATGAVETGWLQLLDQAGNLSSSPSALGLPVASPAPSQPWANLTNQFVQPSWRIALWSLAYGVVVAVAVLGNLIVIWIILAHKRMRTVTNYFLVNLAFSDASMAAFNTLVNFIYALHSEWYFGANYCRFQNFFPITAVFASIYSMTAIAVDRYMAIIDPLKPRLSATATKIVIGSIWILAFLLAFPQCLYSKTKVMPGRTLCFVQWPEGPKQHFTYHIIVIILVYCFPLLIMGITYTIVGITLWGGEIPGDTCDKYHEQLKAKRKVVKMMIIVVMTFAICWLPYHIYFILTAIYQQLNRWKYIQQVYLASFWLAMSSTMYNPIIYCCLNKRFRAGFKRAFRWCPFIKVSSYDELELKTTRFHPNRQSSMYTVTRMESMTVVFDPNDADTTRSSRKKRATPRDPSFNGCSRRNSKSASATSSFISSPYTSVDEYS

[4] = Plasma elimination half-life was determined; type: ADME, organism-based; settings: rat
[5] = Steady state volume of distribution dosing at 3 mg/kg iv; type: ADME, organism-based; set-up: dose 3 mg/kg, route intravenous; settings: rat, in vivo
Substance-K receptor = target: T2, Substance-K receptor (Homo sapiens, UniProt P21452); experiment: Binding affinity for Tachykinin receptor 2
T2 sequence (P21452 whole entry): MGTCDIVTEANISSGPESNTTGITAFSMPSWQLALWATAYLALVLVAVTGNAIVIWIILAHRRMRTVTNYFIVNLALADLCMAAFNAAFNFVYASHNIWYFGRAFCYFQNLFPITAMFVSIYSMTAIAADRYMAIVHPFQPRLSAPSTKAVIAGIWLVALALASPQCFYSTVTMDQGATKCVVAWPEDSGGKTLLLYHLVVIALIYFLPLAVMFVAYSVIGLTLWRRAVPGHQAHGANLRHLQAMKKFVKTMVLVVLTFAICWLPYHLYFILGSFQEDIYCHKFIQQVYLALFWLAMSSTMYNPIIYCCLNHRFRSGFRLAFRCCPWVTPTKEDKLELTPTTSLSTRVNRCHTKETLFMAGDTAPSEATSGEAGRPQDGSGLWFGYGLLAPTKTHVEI

[6] = Oral bioavailability; type: ADME, organism-based; settings: rat, in vivo

Chain of Substance-P receptor (P25103 whole entry): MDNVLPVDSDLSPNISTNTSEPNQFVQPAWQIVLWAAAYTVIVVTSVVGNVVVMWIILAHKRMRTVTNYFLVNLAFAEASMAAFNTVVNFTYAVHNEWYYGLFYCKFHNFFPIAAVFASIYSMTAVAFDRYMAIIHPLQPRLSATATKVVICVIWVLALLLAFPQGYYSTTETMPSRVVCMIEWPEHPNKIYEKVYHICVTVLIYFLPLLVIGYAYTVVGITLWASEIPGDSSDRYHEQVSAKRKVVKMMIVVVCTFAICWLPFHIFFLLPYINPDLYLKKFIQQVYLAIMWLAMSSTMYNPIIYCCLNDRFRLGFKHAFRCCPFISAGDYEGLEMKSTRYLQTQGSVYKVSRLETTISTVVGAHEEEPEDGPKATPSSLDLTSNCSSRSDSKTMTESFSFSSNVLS

| Compound | IC50 (Substance-P receptor) [nM] | also measured |
| --- | --- | --- |
| CN(Cc1nn[nH]n1)[C@H](COCc1cc(C(F)(F)F)cc(C(F)(F)F)c1)c1ccccc1 | 70 | – |
| CN(Cc1nnnn1C)[C@H](COCc1cc(C(F)(F)F)cc(C(F)(F)F)c1)c1ccccc1 | 13 | – |
| O=c1[nH]nc(CN[C@H](COCc2cc(C(F)(F)F)cc(C(F)(F)F)c2)c2ccccc2)[nH]1 | 2.4 | – |
| CCCN(Cc1n[nH]c(O)n1)[C@H](COCc1cc(C(F)(F)F)cc(C(F)(F)F)c1)c1ccccc1 | 2 | – |
| CCN(Cc1n[nH]c(O)n1)[C@H](COCc1cc(C(F)(F)F)cc(C(F)(F)F)c1)c1ccccc1 | 0.8 | – |
| FC(F)(F)c1cc(COC[C@@H](NCc2nn[nH]n2)c2ccccc2)cc(C(F)(F)F)c1 | 23 | – |
| Cc1cc(COC[C@H](c2ccccc2)N(C)Cc2n[nH]c(=O)[nH]2)cc(C(C)(C)C)c1 | 0.42 | – |
| CN(Cc1n[nH]c(O)n1)[C@H](COCc1cc(Cl)cc(Cl)c1)c1ccccc1 | 1.5 | – |
| CN(Cc1nnn(C)n1)[C@H](COCc1cc(C(F)(F)F)cc(C(F)(F)F)c1)c1ccccc1 | 16 | – |
| CN(Cc1n[nH]c(O)n1)[C@H](COCc1cc(C(F)(F)F)cc(C(F)(F)F)c1)c1ccccc1 | 0.43 | IC50 [1]: > 1 mM; Tmax [2]: 30 min; Cmax [3]: 97 ng/mL; IC50 (Neuromedin-K receptor): > 1000 nM; half-life [4]: 48 min; Vd [5]: 3.5 L/kg; IC50 (Substance-K receptor): > 1000 nM; bioavailability [6]: 16% |

Second part, led by results:

| IC50 (Substance-P receptor) [nM] | Compound | also measured |
| --- | --- | --- |
| 15 | Cn1nnc(CN[C@H](COCc2cc(C(F)(F)F)cc(C(F)(F)F)c2)c2ccccc2)n1 | – |
| 2.2 | Cc1cc(Cl)cc(COC[C@H](c2ccccc2)N(C)Cc2n[nH]c(O)n2)c1 | – |
| 1.4 | CN(Cc1nc[nH]n1)[C@H](COCc1cc(C(F)(F)F)cc(C(F)(F)F)c1)c1ccccc1 | – |
| 10 | Cn1nnnc1CN[C@H](COCc1cc(C(F)(F)F)cc(C(F)(F)F)c1)c1ccccc1 | – |
| 5 | FC(F)(F)c1cc(COC[C@@H](NCc2nnc[nH]2)c2ccccc2)cc(C(F)(F)F)c1 | – |
